Test: in vitro
Conditions: rat, erythrocytes
Experimental: Cytotoxicity of the bovine excretion extracts according to the present invention was tested by measuring degree of hemolysis of erythrocytes. To erytlirocytes isolated from rats, the extracts prepared in example 1 were added and then, the mixture was cultivated at a temperature of 37° C. for 30, 60 and 120 minutes, respectively. After centrifugation, 400 μl of medium was taken and then reagent for detection of hemolysis was added thereto. Then, absorbance was read at 540 nm to determine degree of hemolysis. Degree of hemolysis (%) is calculated as follows: [formula]
Erythrocytes treated with menadione (positive control) were measured on degree of hemolysis, for the purpose of comparison with the bovine excretion extracts prepared in example 1. Menadione is a known compound which induce hemolysis of erythrocytes.

Compound: CC1=CC(=O)c2ccccc2C1=O [menadione, Menadione]
- hemolysis at 0 h: 0%
- hemolysis at 0.5 h: 1.6 ± 1.3%
- hemolysis at 1 h: 2.3 ± 0.4%
- hemolysis at 2 h: 65.3 ± 4.8%

From US6248367A, “Bovine excretion extracts having anticancer and anti-inflammatory activity and process for preparing the same” (Kim; Bok Deuk, priority 1998, dated 2001)
